From patent US5498405A, “Indole alkaloids useful as UV protective and anti-inflammatory agents” (The Regents of the University of California, priority 1995, dated 1996)

How the values were obtained:
[1] = Solubility; format: physicochemical; conditions: after mild reduction (e.g., ascorbic acid)
[2] = test system: mouse ear edema (Phorbol 12-myristate 13-acetate, PMA); experiment: Inhibition of PMA-induced inflammation (edema) of the mouse ear; format: in vivo; conditions: PMA 2 μg/ear, 3 hours, 20 minutes
Procedure: Inhibition of Inflammation (Edema) of the Mouse Ear
Compounds 1 and 1R were topically applied in acetone to the inside pinnae of the ears of mice in a solution containing the edema-causing irritant, Phorbol 12-myristate 13-acetate (PMA). […] After 3 hours, 20 minutes incubation, the mice were sacrificed, the ears removed and bores taken and weighed. Edema was measured by subtracting the weight of the right ear (acetone control) from the weight of the left ear (treated). Results are recorded as % decrease (inhibition)or % increase (potentiation) in edema relative to the PMA control group edema.

[3] = test system: myeloperoxidase (MPO); experiment: Myeloperoxidase (MPO) enzyme assay in ear biopsies from treated mice; format: in vivo, mouse; conditions: pooled ear bores
Source text: Myeloperoxidase (MPO) Enzyme Assay
The neutrophil-specific marker released from primary granules, myeloperoxidase (MPO), in ear biopsies from treated and untreated mouse ears was extracted and quantitated according to a modified method of Bradley, P. O., Priebat, D. A., Christensen, R. D. and Rothstein, G., "Measurement of cutaneous inflammation estimation of neutrophil content with an enzyme marker," J. Invest Dermatology 78: 206-209, 1982. This enzyme is indicative of the extravasation of pro-inflammation neutrophils from blood into the skin. Ear bores from each treatment group from mouse ear edema assays were pooled and homogenized in 80 mM sodium phosphate buffer (pH 5.4) containing 0.5% hexadecyltrimethylammonium bromide in a siliconized glass test tube for 1 min. at 0° C. using a Brinkman Polytron. The mixtures were centrifuged at 10,000×g at 4° C. for 30 min. Samples (10 μl) from each group were then assayed in a 96-well microtiter plate. The assay was initiated by adding 250 μl of o-dianisi-dine/phosphate reagent (0.28 mg of dianisidine added to 1 ml of 50 mM sodium phosphate containing […]) to each well. After a 30 minutes incubation of 37° C., the plates were read at 450 nm on a Molecular Devices microplate reader. Diluted control biopsies were utilized to develop a standard curve. Optical density values from drug-treated groups were compared to control groups to determine % of control values of enzyme activity.

O=C1C(=Cc2ccc(O)cc2)c2[nH]c3ccccc3c2C1=C1C(=O)C(=Cc2ccc(O)cc2)C2=Nc3ccccc3C21 (centres unmarked) [Compound 1R]
Solubility properties relative to Compound 1 [1]: slightly improved solubility properties
Dose Response Inhibition of Mouse Ear Edema ([2]; topical dose 1 ug/ear): 22%
Dose Response Inhibition of Mouse Ear Edema ([2]; topical dose 5 ug/ear): 17%
Dose Response Inhibition of Mouse Ear Edema ([2]; topical dose 10 ug/ear): 49%
Dose Response Inhibition of Mouse Ear Edema ([2]; topical dose 50 ug/ear): 94%
Inhibition of Mouse Ear Edema ([2]; topical dose 50 ug/ml (so in the source)): 94%
Dose Response Inhibition of Mouse Ear Edema ([2]; topical dose 100 ug/ear): 95%
MPO Enzyme Activity, % of Control ([3]; dose 1 ug/ear): 81%
MPO Enzyme Activity, % of Control ([3]; dose 5 ug/ear): 82%
MPO Enzyme Activity, % of Control ([3]; dose 10 ug/ear): 32%
MPO Enzyme Activity, % of Control ([3]; dose 100 ug/ear): 10%
